Legend:
Type in all cases: cell-based
Microcystis aeruginosa = assay: Growth inhibition of Cyanobacteria, chlorophyll-a content
Method: (§1) The solution of the control and sample I were centrifuged at 10000 rpm at 20° C. for 3 hours, and then the supernatant were poured out. Next, two 10 ml portions of 95% (v/v) ethanol were added to sample I and the control and mixed with the residues. Next, the solution of sample I and the control were water-bathed in 60° C. water for 30 mins to extract Chlorophyll-a. When being bathed in the water, the solution of the control and sample I were shaken every ten minutes. After that, the solutions were centrifuged at 5000 G at 20° C. for 15 minutes and the supernatants were kept. Then, the absorbance at 665 nm of the control and sample I were detected. Finally, according to the “Standard Methods for the Examination Chlorophyll-a in Water-Ethanol Extraction” issued by National Indian Education Association, Taiwan (NIEA E508.00B), the absorbance at 665 nm of the control and sample I were calibrated and the concentration of Chlorophyll-a content can be calculated by the absorbance measure.
(§2) To verify whether Cyanobacteria can be inhibited by glucosamine or not, in the following embodiment, two kinds of toxic Cyanobacteria, Microcystis aeruginosa and […]. The detailed procedures are described below.
(§3) First, four 50 ml portions of water with Microcystis aeruginosa were obtained and labeled as control and sample II, sample III, and sample IV respectively. The weight concentration of Microcystis aeruginosa cell in these four samples 883 μg/L (ppb). Next, different amount of glucosamine was added into the three samples so that the concentrations of glucosamine in samples II, III, and IV were 10 ppm, 20 ppm, and 50 ppm, respectively. After that, the control and sample II, III, and IV were cultured for 14 days with Bold's medium, and the Chlorophyll-a content of each sample were detected every 7 days. The procedures of detecting Chlorophyll-a content was the same as mentioned in embodiment I and the whole process was repeated for testing Microcystis flos-aquae.

Microcystis flos-aquae = assay: as above
Method: as §1, §2, §3

[1] = test system: fishpond water algae, especially abundant in Chlorophyta; assay: Growth inhibition of algae in fishpond water, chlorophyll-a content by spectrometry; conditions: 100 ppm glucosamine
Method: In order to test if glucosamine inhibited the growth of algae or not, in the following embodiment, glucosamine was added to samples and then observed. Moreover, since chlorophyll-a content of algae is widely used as an indicator of the quality of freshwater bodies and the abundance of algae, the chlorophyll-a content in the sample was detected by spectrometry.
First, two 20 ml portions of water were obtained from a fishpond which contains a varieties of algae and is especially abundant in Chlorophyta. Both portions of water were labeled as control and sample I respectively. Next, 100 ppm glucosamine was added in sample I, and then the control and sample I were cultured for 28 days with Bold's medium.
The solution of the control and sample I were centrifuged at 10000 rpm at 20° C. for 3 hours, and then the supernatant were poured out. Next, two 10 ml portions of 95% (v/v) ethanol were added to sample I and the control and mixed with the residues. […] Then, the absorbance at 665 nm of the control and sample I were detected. Finally, according to the “Standard Methods for the Examination Chlorophyll-a in Water-Ethanol Extraction” issued by National Indian Education Association, Taiwan (NIEA E508.00B), the absorbance at 665 nm of the control and sample I were calibrated and the concentration of Chlorophyll-a content can be calculated by the absorbance measure.

[2] = Microcystis aeruginosa, 336 h, read-out: Inhibition efficiency (after 14 days)

## N[C@H]1C(O)O[C@H](CO)[C@@H](O)[C@@H]1O (stereo partly drawn) [glucosamine]
Microcystis aeruginosa; 10 ppm divided by 0.883 mg (weight concentration of Cyanobacteria 0.883 mg/L)
  minimum effective amount of glucosamine: at least 10 ppm/mg algae
Microcystis aeruginosa; 10 ppm glucosamine (Sample II), 7th day, control 270 ppb
  Chlorophyll-a content: 80 ppb
Microcystis aeruginosa; 10 ppm glucosamine (Sample II), 14th day, control 2657 ppb
  Chlorophyll-a content: 1922 ppb
Microcystis aeruginosa; 20 ppm glucosamine (Sample III), 7th day, control 270 ppb
  Chlorophyll-a content: 65 ppb
Microcystis aeruginosa; 20 ppm glucosamine (Sample III), 14th day, control 2657 ppb
  Chlorophyll-a content: 1004 ppb
Microcystis aeruginosa; 50 ppm glucosamine (Sample IV), 7th day, control 270 ppb
  Chlorophyll-a content: 41 ppb
Microcystis aeruginosa; 50 ppm glucosamine (Sample IV), 14th day, control 2657 ppb
  Chlorophyll-a content: 72.3 ppb
Microcystis aeruginosa; [2]
  inhibition at 10 ppm: 27.6%
  inhibition at 20 ppm: 62.2%
  inhibition at 50 ppm: 97.2%
Microcystis flos-aquae; 10 ppm glucosamine (Sample V), 7th day, control 178 ppb
  Chlorophyll-a content: 0 ppb
Microcystis flos-aquae; 10 ppm glucosamine (Sample V), 14th day, control 438 ppb
  Chlorophyll-a content: 225 ppb
Microcystis flos-aquae; 20 ppm glucosamine (Sample VI), 7th day, control 178 ppb
  Chlorophyll-a content: 3 ppb
Microcystis flos-aquae; 20 ppm glucosamine (Sample VI), 14th day, control 438 ppb
  Chlorophyll-a content: 142 ppb
Microcystis flos-aquae; 50 ppm glucosamine (Sample VII), 7th day, control 178 ppb
  Chlorophyll-a content: 15 ppb
Microcystis flos-aquae; 50 ppm glucosamine (Sample VII), 14th day, control 438 ppb
  Chlorophyll-a content: 92 ppb
Microcystis flos-aquae; Microcystis flos-aquae, 336 h, 10 ppm glucosamine (Sample V), read-out: Inhibition efficiency (after 14 days)
  inhibition at 10 ppm: 48.6%
Microcystis flos-aquae; Microcystis flos-aquae, 336 h, 20 ppm glucosamine (Sample VI), read-out: Inhibition efficiency (after 14 days)
  inhibition at 20 ppm: 67.5%
Microcystis flos-aquae; Microcystis flos-aquae, 336 h, 50 ppm glucosamine (Sample VII), read-out: Inhibition efficiency (after 14 days)
  inhibition at 50 ppm: 78.9%
[1]; 28 days, Bold's medium
  algae bloom observed after culture: the algae in the control bloomed, but not sample I
[1]; cultured 28 days with Bold's medium, control 652 ppb
  concentration of Chlorophyll-a content: 74 ppb

From patent publication US7612049B2, “Method of inhibition the growth of algae” (priority 2007, dated 2009)
